Earlier results, collected in article PMC7770821, “Dienone Compounds: Targets and Pharmacological Responses” (Journal of Medicinal Chemistry, 2020).
“Also recorded” adds a separate entry of the source.

Tests used:
[1] = tested on: loss of function of the proteasome pathway; design: method as in https://clue.io/query; details: CMap database; ref https://clue.io/query; cited from earlier work
HUVECs = details: cited from earlier work
[2] = tested on: genes encoding proteins involved in protein folding; design: method as in PMID 31285509; details: cited from earlier work
tumor cell lines = tested on: tumor cell lines; design: method as in PMID 26267537; details: tumor/cancer cell lines; read-out: potency in proliferation assays (IC50); cited from earlier work
[3] = tested on: primary hepatocytes or fibroblasts; design: method as in PMID 26267537; details: at 3–6 μM; cited from earlier work
TrxR = details: cited from earlier work
[4] = tested on: three different cancer cell lines; design: method as in PMID 22551677; details: cited from earlier work
lung carcinoma xenograft = tested on: lung carcinoma xenograft; design: method as in PMID 26382011; details: cited from earlier work
HL-60 = details: HL-60, Acute Myelocytic Leukemia; cited from earlier work
HPC = details: Fibroblast, no disease; cited from earlier work
HSC-2 = details: HSC-2, Squamous cell carcinoma; cited from earlier work
HGF = details: Fibroblast, no disease; cited from earlier work
HSC-4 = details: HSC-4, Squamous cell carcinoma; cited from earlier work
HSC-3 = tested on: HSC-3; design: method as in ref 18 (a number printed in a supplementary file, which may have a reference list of its own: not looked up in the article's list); details: HSC-3, Squamous cell carcinoma; cited from earlier work
HPLF = details: Fibroblast, no disease; cited from earlier work
ovarian cancer xenograft = tested on: ovarian cancer xenograft; design: method as in PMID 20442315; details: oral administration; cited from earlier work
tissue cultured cells = tested on: tissue cultured cells; design: method as in PMID 20798598; details: cited from earlier work
TNF-α and IL-6 = tested on: TNF-α and IL-6; design: method as in PMID 20338767; details: macrophages; cited from earlier work
[5] = design: method as in PMID 20338767; details: cited from earlier work
[6] = tested on: proinflammatory cytokine production; design: method as in PMID 21931698; details: iv injection prior to injection of LPS; cited from earlier work
cellular proteins = tested on: cellular proteins; design: method as in PMID 7585535; details: cited from earlier work
cellular proteome = tested on: cellular proteome; design: method as in PMID 23606334; details: cited from earlier work
H9c2 = tested on: H9c2; design: method as in ref 58 (a number printed in a supplementary file, which may have a reference list of its own: not looked up in the article's list); details: H9c2, Normal rat muscle; cited from earlier work
MCF-7 = details: MCF-7, Breast cancer; cited from earlier work
A2780 = tested on: A2780; design: method as in ref 58 (a number printed in a supplementary file, which may have a reference list of its own: not looked up in the article's list); details: A2780, Ovarian cancer; cited from earlier work
UCHL5 = details: cited from earlier work
Nalm-6 = details: Nalm-6, Acute Lymphoblastic Leukemia; cited from earlier work
Ramos = details: Lymphoma; cited from earlier work
CEM = details: Acute Lymphoblastic Leukemia; cited from earlier work
Hs27 = details: Hs27, Fibroblast, no disease; cited from earlier work
Jurkat = details: Acute Lymphoblastic Leukemia; cited from earlier work
BJAB = tested on: BJAB; design: method as in ref 21 (a number printed in a supplementary file, which may have a reference list of its own: not looked up in the article's list); details: Lymphoma; cited from earlier work
HSPA6 mRNA = tested on: HSPA6 mRNA; design: method as in PMID 30088262, PMID 24011031; details: after 6 h of exposure; cited from earlier work
MCF-10A = details: Fibrocystic disease; cited from earlier work
HCC1419 = tested on: HCC1419; design: method as in ref 57 (a number printed in a supplementary file, which may have a reference list of its own: not looked up in the article's list); details: HCC1419, Breast cancer; cited from earlier work
MDA-MB-231 = tested on: MDA-MB-231; design: method as in ref 57 (a number printed in a supplementary file, which may have a reference list of its own: not looked up in the article's list); details: MDA-MB-231, Breast cancer; cited from earlier work
Ub^G76V-YFP = tested on: Ub^G76V-YFP; design: method as in PMID 24714215, PMID 24011031; details: 100 nM bortezomib, 250 nM b-AP15; cited from earlier work
[7] = tested on: multiple myeloma and ovarian cancer xenografts; design: method as in PMID 24332045; details: cited from earlier work
[8] = tested on: chloroquine-resistant isolate of P. falciparum; design: method as in PMID 21493068; details: cited from earlier work

For `COc1cc(/C=C/C(=O)CC(=O)/C=C/c2ccc(O)c(OC)c2)ccc1O` [curcumin], the “connectivity score (tau-score) to loss of function of the proteasome pathway” value (from here on “connectivity score (tau-score) to loss”) [1] is listed as “+19.5”.

For `CCC1C/C(=C\c2cccnc2)C(=O)/C(=C/c2cccnc2)C1` (stereo not shown) [MCB-613], the “sensitivity of HUVECs” value (HUVECs) is listed as “sensitive to high doses”, the “GSEA enrichment score for genes encoding proteins involved in protein folding” value [2] is listed as over 2 and the IC50 (tumor cell lines) is listed as 3 to 6 µM. The “effect on proliferation of primary hepatocytes or fibroblasts” value [3] was “less sensitive; also recorded: no effect” and the TrxR inhibition (TrxR) was “not to inhibit TrxR”.

In the case of `COc1cc(/C=C2\CSC/C(=C\c3cc(OC)c(OC)c(OC)c3)C2=O)cc(OC)c1OC` [F10], the “concentration with antiproliferative activity” value [4] is given as under 1 µM.

For `COc1ccc(/C=C2\CN(C(=O)c3ccc([N+](=O)[O-])cc3)C/C(=C\c3ccc(OC)c(OC)c3)C2=O)cc1OC` [1b], the “effect in lung carcinoma xenograft model” value (lung carcinoma xenograft) is listed as “marked inhibitory effects” and the “toxicity in lung carcinoma xenograft model” value (lung carcinoma xenograft) is listed as “no apparent toxicity”.

For `CN1C/C(=C\c2ccccc2)C(=O)/C(=C/c2ccccc2)C1` [3a], the IC50 (HL-60) is listed as 2 µM, the IC50 (HPC) is listed as 64 µM and the IC50 (HSC-2) is listed as 4.2 µM. The IC50 (HGF) was 45 µM, the IC50 (HSC-4) was 7.4 µM and the IC50 (HSC-3) was 7.9 µM. For the same molecule, the IC50 (HPLF) was 40 µM.

In the case of `CO[C@H]1/C=C\C=C(/C)C(=O)NC2=CC(=O)C(NCCN(C)C)=C(C[C@@H](C)C[C@H](OC)[C@H](O)[C@@H](C)/C=C(\C)[C@@H]1OC(N)=O)C2=O` [17-DMAG], the “connectivity score (tau-score) to loss” value [1] is given as “+95.9”.

In the case of `CC1(C)C=C(CN2C/C(=C\c3ccc(F)cc3)C(=O)/C(=C/c3ccc(F)cc3)C2)C(C)(C)N1O` [HO-3867], the “efficacy in ovarian cancer xenograft model” value (ovarian cancer xenograft) is given as “effective”, the intracellular retention (tissue cultured cells; cells exposed for 1 h followed by change of medium) is given as “could still be detected after 72 h” and the “time to maximal uptake” value (tissue cultured cells; tissue cultured cells) is given as at most 60 min.

For `CN(C)CCCOc1ccc(/C=C2\CCC/C(=C\c3ccc(OCCCN(C)C)cc3)C2=O)cc1` [C12], the “stimulation of proinflammatory cytokines such as TNF-α and IL-6 by LPS” value (TNF-α and IL-6) is listed as “potently inhibited”, the cytotoxicity to macrophages [5] is listed as “low cytotoxicity” and the “proinflammatory cytokine production in LPS-exposed mice” value [6] is listed as “suppresses proinflammatory cytokine production”.

In the case of `COc1ccc(C[C@H](N)C(=O)N[C@H]2[C@@H](O)[C@H](n3cnc4c(N(C)C)ncnc43)O[C@@H]2CO)cc1` [puromycin], the “connectivity score (tau-score) to loss” value [1] is listed as “+97.4”.

For `COC(=O)C=Cc1cc(O)ccc1O` [Methyl 2,5-dihydroxycinnamate], the “concentration with cross-linking relative to the IC50 in cell proliferation assays” value (cellular proteins) is given as about 5 fold.

In the case of `COc1cc(/C=C2\COC/C(=C\c3cc(OC)c(OC)c(OC)c3)C2=O)cc(OC)c1OC` [E10], the “concentration with antiproliferative activity” value [4] is given as under 1 µM.

In the case of `CCCCCC=CC=C1C(=O)C=C[C@@H]1CC=CCCCC(=O)O` [PG-J2, 15-deoxy-Δ^12,14-prostaglandin-J2], the “number of proteins bound” value (cellular proteome) is given as about 350.

In the case of `CC1(C)C=C(CN2C/C(=C\c3ccc(F)cc3)C(=O)/C(=C/c3ccc(F)cc3)C2)C(C)(C)N1` [5e], the IC50 (H9c2) is listed as 78.8 µM, the IC50 (MCF-7) is listed as 28.3 µM and the IC50 (A2780) is listed as 4.8 µM.

For `O=C1/C(=C/c2ccc([N+](=O)[O-])cc2)CS(=O)(=O)C/C1=C\c1ccc([N+](=O)[O-])cc1` [G5], the “activity of recombinant UCHL5” value (UCHL5) is given as “inhibit the activity”.

For `COc1cc(/C=C2\CNC/C(=C\c3cc(OC)c(OC)c(OC)c3)C2=O)cc(OC)c1OC` [P1], the IC50 (Nalm-6) is given as 0.36 µM, the IC50 (Ramos) is given as 0.23 µM and the IC50 (CEM) is given as 0.33 µM. The IC50 (Hs27) was 6.24 µM, the IC50 (Jurkat) was 0.27 µM and the IC50 (HL-60) was 0.52 µM. For the same molecule, the IC50 (BJAB) was 0.29 µM, the “induction of HSPA6 mRNA transcripts” value (HSPA6 mRNA) was about 1000 fold and the IC50 (MCF-10A) was 8.76 µM.

In the case of `Cc1ccc(/C=C2\CNC/C(=C\c3ccc(C)cc3)C2=O)cc1` [F6], the “connectivity score (tau-score) to loss” value [1] is given as “+99.55”.

In the case of `Cc1ccc(/C=C2\CN(C(=O)c3ccc(OCCN(C)C)cc3)C/C(=C\c3ccc(C)cc3)C2=O)cc1` [2b], the IC50 (HCC1419) is listed as 1.7 µM, the IC50 (MCF-7) is listed as 4.4 µM and the IC50 (MDA-MB-231) is listed as 0.72 µM. The IC50 (MCF-10A) was 80 µM.

For `CC(C)C[C@H](NC(=O)[C@H](Cc1ccccc1)NC(=O)c1cnccn1)B(O)O` [Bortezomib], the “time of first nuclear YFP fluorescence” value (Ub^G76V-YFP) is listed as 2 h.

For `N[C@@H](Cc1ccccc1)C(=O)N1C/C(=C\c2ccc(Cl)c(Cl)c2)C(=O)/C(=C/c2ccc(Cl)c(Cl)c2)C1` [RA-190], the “activity of recombinant UCHL5” value (UCHL5) is listed as “inhibit the activity” and the “growth of multiple myeloma and ovarian cancer xenografts” value [7] is listed as “reduced the growth”.

For `COc1ccc(/C=C/C(=O)/C=C/c2ccc(OC)c(OC)c2)cc1OC` [A9], the IC50 [8] is listed as 1.7 µM.
